These results are taken from US6716428B1, “Antigenic modification of polypeptides” (The Ohio State University Research Foundation, priority 1999, dated 2004).

One assay concerns baboons. As to the kind of experiment: Breeding of immunized baboons (pre-mate titer, ovulation, pregnancy), Diazo-β-HCG presensitized, Diazo-β-HCG-(111-145) booster. It counts as in vivo, baboon. The note with it: for Pre-Mate Titer: baboon 2, matings No. 1-10 over approximately one year. Here is the method:
Baboons were immunized initially with a beta subunit of HCG modified by diazotization in a manner similar to that described in conjunction with Example II. Following this initial administration, the baboons were injected 21 and 42 days later with the peptide of Structure (II) above which had been modified by the same diazotization process. The levels were maintained for a period of over one year.
The Table presents the results of mating these animals ten times over a period of approximately one year. […] Such cross reactivity may be avoided by the utilization of the fragment conjugation procedures set forth in detail hereinabove.

The test system of assay [1] is HCG. It is filed as in vivo, rabbit.
For the next assay, the system named is female baboons. The assay can be described thus: Fertility rates (matings and pregnancies) of immunized female baboons. The note with it: CFA. It is filed as in vivo, baboon.
Assay [2] deals with peptide used in the conjugate (Structure (II), (XII), (XIV), (X)). The assay can be described thus: Antibody level to the peptide of the conjugate in immunized mice (^125I antigen, double antibody technique). It is filed as in vivo. Conditions: for Antibody level to Structure (XII): 52 days; for Antibody Level to Peptide: mice, carrier series.
The test system of assay [3] is HCG. The assay can be described thus: Antibody level to HCG in immunized mice (^125I antigen, double antibody technique). Conditions: for Antibody level to CG: 52 days; for Antibody Level to HCG: mice, carrier series. It is filed as in vivo.

Where two headings read alike, the source gives them in different places. Bounds are passed on as bounds.

As for “Diazo-β-HCG-(111-145): peptide of Structure (II) modified by diazotization, booster after presensitization with diazotized beta subunit of HCG (DDPRFQDSSSSKAPPPSLPSPSRLPGPSDTPILPQ; diazo conjugate; UniProt P0DN86 131-165, looked up, fragment)”, the “Pre-Mate Titer” value turned out to be 4.10 with baboons (before Mating No. 2); 4.00 in the assay with baboons (before Mating No. 3); 3.89 with baboons (before Mating No. 4); 3.76 with baboons (before Mating No. 5); 5.00 in the assay with baboons (before Mating No. 6); 4.75 with baboons (before Mating No. 7). Further, the “Pre-Mate Titer” value is 4.20 in the assay on baboons (before Mating No. 8) and 4.25 in the assay on baboons (before Mating No. 9). The “antibody cross reactivity with LH” value in the assay with baboons (in vivo) is listed as “antibody cross reactivity with LH was observed”.
Consider `CCCCCCCCCCCCCCCCCC(=O)OCC1OC(O)C(NC(C)=O)C(OCC(=O)NC(C)C(=O)NC(CCC(=O)O)C(N)=O)C1O` (centres unmarked) [CGP 18741, NAc-ner-Mur (6-0-stearoyl)-L.Ala-D.isoGln], for which the “Mean Antibody Level-^125I-HCG” value in the assay on HCG [1] (as E193, 4 weeks) amounted to 9.8 M/L × 10^10; in the assay on HCG [1] (as E193, 5 weeks), 6.2 M/L × 10^10; with HCG [1] (as E193, 6 weeks), 8.9 M/L × 10^10; in the assay on HCG [1] (as E193, 7 weeks) it was 81.1 M/L × 10^10; in the assay on HCG [1] (as E193, 8 weeks) it was 75.4 M/L × 10^10; in the assay with HCG [1] (as E193, 9 weeks), 74.9 M/L × 10^10. For the same compound, the “Mean Antibody Level-^125I-HCG” value was found to be 121.8 M/L × 10^10 in the assay with HCG [1] (as E193, 10 weeks); 156.8 M/L × 10^10 in the assay with HCG [1] (as E193, 11 weeks); 97.6 M/L × 10^10 with HCG [1] (as E193, 12 weeks); 5.9 M/L × 10^10 in the assay on HCG [1] (in vivo).
On to “Tetanus Toxoid: carrier protein given alone to the control group”, for which the “Fertility Rate” value in the assay on female baboons (Mating Cycle 1) was determined as 66.7%; in the assay with female baboons (Mating Cycle 2), 80.0%; in the assay on female baboons (Mating Cycle 3), 100.0%. Besides, the “Number Pregnant” value turned out to be 10 in the assay on female baboons (Mating Cycle 1), 4 in the assay with female baboons (Mating Cycle 2) and 1 in the assay with female baboons (Mating Cycle 3). For the same compound, in the assay on female baboons (all matings of three mating cycles), the “Overall Fertility Rate” value was 71.4%. In addition, the “Total Number Pregnant” value in the assay on female baboons (three mating cycles) is recorded as 15.
For “N-Palmitoyl-S-[2(R,S)-3-dipalmitoyloxy-propyl]-L-Cys-L-Ser-L-Ser-L-Asn-L-Ala-L-Glu [CGP 16940]”, the “Antibody level to Structure (XII)” value in assay [2] was found to be 110.0 ng/mL; in assay [2] (C3H/He mice, same conjugate), 19.2 ng/mL; in assay [2] (DBA/1 mice, same conjugate), 173.0 ng/mL; in assay [2] (SJL mice, same conjugate) it was 369.0 ng/mL. In addition, the “Antibody level to CG” value in the assay on HCG [3] was 1.0 ng/mL; in the assay with HCG [3] (C3H/He mice, same conjugate) it was under 1.0 ng/mL; in the assay with HCG [3] (DBA mice, same conjugate) it was under 1.0 ng/mL; in the assay on HCG [3] (SJL mice, same conjugate), 8.6 ng/mL. The “HCG antibody levels compared with the CFA immunized rabbits” value in the assay on HCG [1] (in vivo) is “significantly lower”.
“NAc-Mur-L.Ala-D.isoGln-L.Ala-Cephalin [CGP 19835]”: the “Mean Antibody Level-^125I-HCG” value is 286.7 M/L × 10^10 in the assay on HCG [1] (as E193, 4 weeks); 140.3 M/L × 10^10 with HCG [1] (as E193, 5 weeks); 172.0 M/L × 10^10 with HCG [1] (as E193, 6 weeks); 123.4 M/L × 10^10 with HCG [1] (as E193, 7 weeks); 138.9 M/L × 10^10 in the assay with HCG [1] (as E193, 8 weeks); 105.2 M/L × 10^10 in the assay with HCG [1] (as E193, 9 weeks). Further, the “Mean Antibody Level-^125I-HCG” value worked out at 151.3 M/L × 10^10 in the assay on HCG [1] (as E193, 10 weeks); 169.3 M/L × 10^10 with HCG [1] (as E193, 11 weeks); 107.8 M/L × 10^10 with HCG [1] (as E193, 12 weeks); 19.3 M/L × 10^10 with HCG [1] (in vivo).
Consider NGlycol-Mur-L. a -Abu-D.isoGln [DT-1], for which the “Mean Antibody Level-^125I-HCG” value in the assay with HCG [1] (as E193, 4 weeks) is given as 145.1 M/L × 10^10; with HCG [1] (as E193, 5 weeks) it was 184.1 M/L × 10^10; in the assay on HCG [1] (as E193, 6 weeks), 268.6 M/L × 10^10; with HCG [1] (as E193, 7 weeks), 371.5 M/L × 10^10; with HCG [1] (as E193, 8 weeks) it was 366.2 M/L × 10^10; in the assay with HCG [1] (as E193, 9 weeks), 654.8 M/L × 10^10. Besides, the “Mean Antibody Level-^125I-HCG” value was found to be 729.4 M/L × 10^10 in the assay with HCG [1] (as E193, 10 weeks); 627.5 M/L × 10^10 in the assay with HCG [1] (as E193, 11 weeks); 559.0 M/L × 10^10 in the assay on HCG [1] (as E193, 12 weeks); 31.1 M/L × 10^10 in the assay with HCG [1] (in vivo). Besides, in the assay with HCG [1] (in vivo), the “HCG antibody levels compared with rabbits receiving adjuvants CGP 16940 and 12908” value is on record as “significantly greater”.
On to `CCCCCCCCCCCCCCCCCC(=O)OCC1OC(O)C(NC(C)=O)C(OC(C)C(=O)NC(C)C(=O)NC(CCC(=O)O)C(N)=O)C1O` (centres unmarked) [CGP 18177, NAc-Mur (6-0-stearoyl)-LAla-D.isoGln], for which the “Mean Antibody Level-^125I-HCG” value in the assay with HCG [1] (as E193, 4 weeks) was determined as 215.1 M/L × 10^10; with HCG [1] (as E193, 5 weeks), 204.6 M/L × 10^10; with HCG [1] (as E193, 6 weeks), 218.2 M/L × 10^10; with HCG [1] (as E193, 7 weeks), 441.9 M/L × 10^10; in the assay with HCG [1] (as E193, 8 weeks) it was 544.9 M/L × 10^10; in the assay on HCG [1] (as E193, 9 weeks) it was 456.2 M/L × 10^10. For the same compound, the “Mean Antibody Level-^125I-HCG” value in the assay on HCG [1] (as E193, 10 weeks) amounted to 631.0 M/L × 10^10; in the assay on HCG [1] (as E193, 11 weeks), 584.0 M/L × 10^10; with HCG [1] (as E193, 12 weeks), 270.0 M/L × 10^10; in the assay on HCG [1] (in vivo), 19.9 M/L × 10^10.
For the compound `CCC(NC(=O)COC1C(O)C(CO)OC(O)C1NC(C)=O)C(=O)NC(CCC(=O)O)C(N)=O` [CGP 14767, NAc-nor-Mur-L-Abu-D.isoGln], the “Antibody level to Structure (XII)” value in assay [2] amounted to 53.0 ng/mL; in assay [2] (C3H/He mice, same conjugate), 74.9 ng/mL; in assay [2] (DBA/1 mice, same conjugate) it was 22.2 ng/mL; in assay [2] (SJL mice, same conjugate) it was 91.6 ng/mL. The “Antibody level to CG” value in the assay on HCG [3] was 21.0 ng/mL; in the assay on HCG [3] (C3H/He mice, same conjugate) it was 21.4 ng/mL; in the assay on HCG [3] (DBA mice, same conjugate), 11.1 ng/mL; with HCG [3] (SJL mice, same conjugate) it was 5.4 ng/mL.
In the case of `CC(=O)N[C@H]1C(O)O[C@H](CO)[C@@H](O)[C@@H]1OCC(=O)N[C@@H](C)C(=O)N[C@H](CCC(=O)O)C(N)=O` (some centres unmarked) [CGP 11637, NAc-nor Mur-L. Ala-D. iso Gln], the “Antibody level to Structure (XII)” value in assay [2] turned out to be 70.9 ng/mL; in assay [2] (C3H/He mice, same conjugate) it was 84.0 ng/mL; in assay [2] (DBA/1 mice, same conjugate), 42.5 ng/mL; in assay [2] (SJL mice, same conjugate), 60.1 ng/mL. In addition, the “Antibody level to CG” value with HCG [3] came to 18.3 ng/mL; in the assay on HCG [3] (C3H/He mice, same conjugate) it was 21.5 ng/mL; with HCG [3] (DBA mice, same conjugate), 10.6 ng/mL; in the assay on HCG [3] (SJL mice, same conjugate) it was 13.8 ng/mL. Besides, the “Mean Antibody Level-^125I-HCG” value is given as 177.8 M/L × 10^10 in the assay on HCG [1] (as E193, 4 weeks); 211.9 M/L × 10^10 in the assay on HCG [1] (as E193, 5 weeks); 297.2 M/L × 10^10 in the assay with HCG [1] (as E193, 6 weeks); 381.2 M/L × 10^10 in the assay with HCG [1] (as E193, 7 weeks); 418.6 M/L × 10^10 with HCG [1] (as E193, 8 weeks); 480.0 M/L × 10^10 with HCG [1] (as E193, 9 weeks). Further, the “Mean Antibody Level-^125I-HCG” value in the assay on HCG [1] (as E193, 10 weeks) came out at 708.6 M/L × 10^10; in the assay with HCG [1] (as E193, 11 weeks), 628.5 M/L × 10^10; in the assay with HCG [1] (as E193, 12 weeks), 398.5 M/L × 10^10; in the assay on HCG [1] (in vivo) it was 16.3 M/L × 10^10. For the same compound, the “HCG antibody levels compared with rabbits receiving adjuvants CGP 16940 and 12908” value in the assay with HCG [1] (in vivo) was “significantly greater”.
For “Structure (XII): residues 109-145 of beta-HCG, SEQ ID NO: 13; unconjugated in Table 11 (carrier None) (TCDDPRFQDSSSSKAPPPSLPSPSRLPGPSDTPILPQ; listed as Homo sapiens)”, the “Antibody Level to Peptide” value stood at 1.3 ng/mL in assay [2] (peptide of Structure (XII), 21 days after primary immunization) and 0.8 ng/mL in assay [2] (35 days). Moreover, the “Antibody Level to HCG” value in the assay on HCG [3] (21 days) and in the assay on HCG [3] (35 days) was 0.1 ng/mL each time.
